Counter-ions that a name gives are not always drawn.
Legend:
[1] = molecular target: T1, hPD-1 (50 nM) and hPD-L1 (5 nM) protein complex (Homo sapiens, UniProt Q9NZQ7); test: Homogenous Time Resolved Fluorescence (HTRF) assay, Cisbio kit 64ICP01PEG; type: binding; details: activity range from Hill curve fit; 1 h incubation at room temperature; TR-FRET; three independent measurements
T1 construct: purchased Cisbio 64ICP01PEG
Experimental: The biological activity of the compounds described in the previous section was tested by the Homogenous Time Resolved Fluorescence (HTRF) method. Determination was carried out with the use of putty from the Cisbio company (catalog number 64ICP01PEG) in the 20 µL format using the protocol from the manufacturer. Compounds in the concentration range allowing determination of biological activity from the inflection curve were added to the hPD-1 (50 nM) and hPD-L1 (5 nM) protein complex with antibodies and allowed to incubate for one hour at room temperature before measuring Forster resonant energy transfer (TR-FRET) on a Tecan Spark 20M instrument. The results were normalized to a positive control (complex without inhibitor) and negative control (no hPD-1), averaged from three independent measurements and fitted with a Hill curve.
Ranges of activity of the tested compounds: "very good" (+++) below 20 nM, "moderate" (++) - 20-50 nM and "low" (+) - 50 nM - 1 µM.

PD-1/PD-L1 interaction = molecular target: T2, PD-1/PD-L1 interaction (Homo sapiens, UniProt Q9NZQ7); test: PD-1/PD-L1 Blockade Bioassay (Promega J1252; NFAT cellular assay); type: cell-based; details: PD-1 Effector Jurkat cells co-cultured with PD-L1 aAPC/CHO-K1 cells for 6 h; NFAT-RE luminescence; three replications
T2 construct: host or cells: PD-L1 aAPC/CHO-K1 cells; PD-1 Effector Jurkat T cells
T2 sequence (Q9NZQ7 19-290): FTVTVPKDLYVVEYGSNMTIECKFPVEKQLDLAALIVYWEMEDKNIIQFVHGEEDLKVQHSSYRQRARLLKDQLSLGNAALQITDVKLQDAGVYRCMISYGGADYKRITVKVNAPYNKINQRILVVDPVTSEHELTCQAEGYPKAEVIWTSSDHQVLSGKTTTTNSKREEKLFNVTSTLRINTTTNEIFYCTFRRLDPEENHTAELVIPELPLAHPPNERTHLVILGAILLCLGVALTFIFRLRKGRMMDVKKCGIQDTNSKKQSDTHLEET
Experimental: The potency of blocking the PD-1/PD-L1 pathway was assessed using the PD-1/PD-L1 Blockade Bioassay (Promega, cat. J1252). This assay relies on two genetically engineered cell lines: PD-1 Effector cells (Jurkat T cells expressing human PD-1 and luciferase driven by NFAT response element) and PD-L1 aAPC/CHO-K1 cells (CHO-K1 cells expressing human PD-L1 and cell surface protein designed to activate cognate T-cell Receptors in an antigen-independent manner). When the two cell types are co-cultured, the PD-1/PD-L1 interaction inhibits TCR signaling and NFAT-RE-mediated luminescence. Addition of either an anti-PD-1 or anti-PD-L1 antibody that blocks the PD-1/PD-L1 interaction releases the inhibitory signal and leads to TCR activation and the NFAT-RE-mediated luminescence, which is then measured on a microplate reader. The assay was performed according to the manufacturer's manual. PD-L1 aAPC/CHO-K1 cells were plated in 96-well, white, flat bottom assay plates at […] cells in 100 µL of medium (Ham's F12, 10% FBS) and incubated overnight at 37°C, 5% CO2. The next day, the medium was removed from the assay plate and serially diluted compounds as listed in table 1 were added at 40 µL per well in the assay buffer (RPMI1640 + 1% FBS + 0,5% DMSO). Next, PD-1 Effector Jurkat cells were resuspended in the assay buffer (RPMI 1640 + 1% FBS) at a concentration of 1,25 × 10^6 cells/mL and added to the assay plate at 40 µL per well (total of […]). The cells were co-cultured for 6 h (37°C, 5% CO2) and then removed from the incubator and equilibrated for 5 min at room temperature. The Bio-GloTM Reagent (Promega, cat. G7941) was prepared according to the manufacturer's instructions and added to each well at 80 µL per well. The results were baseline-corrected to non-treated controls, averaged from three replications and fitted with a 4-parameters variable slope.

T1 sequence (Q9NZQ7 19-238 limits assumed, one chain of several): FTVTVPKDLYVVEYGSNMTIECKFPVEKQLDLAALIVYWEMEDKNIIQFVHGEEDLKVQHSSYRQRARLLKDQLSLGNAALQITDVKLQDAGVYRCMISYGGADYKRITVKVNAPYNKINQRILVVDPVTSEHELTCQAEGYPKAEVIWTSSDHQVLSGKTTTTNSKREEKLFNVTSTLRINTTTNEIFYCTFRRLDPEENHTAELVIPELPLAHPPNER

Row | SMILES | IC50 [1] [nM] | EC50 (PD-1/PD-L1 interaction) [nM]
1 | COc1cc(C(=O)Nc2cccc(-c3cccc(NC(=O)c4cc(OC)c(CN[C@@H](C)CO)cn4)c3C)c2C)ncc1CN[C@H]1CCC[C@@H]1O [Compound R1_C428, 5-((((1S,2S)-2-hydroxycyclopentyl)amino)methyl)-N-(3'-(5-((((S)-1-hydroxypropan-2-yl)amino)methyl)-4-methoxypicolinamido)-2,2'-dimethyl-[1,1'-biphenyl]-3-yl)-4-methoxypicolinamide] | < 20 | 44.6
2 | COc1cc(C(=O)Nc2cccc(-c3cccc(NC(=O)c4cc(OC)c(CN[C@@H](C)CO)cn4)c3C)c2C)ncc1CNC(CO)CO [Compound R1_C446, (S)-5-(((1,3-dihydroxypropan-2-yl)amino)methyl)-N-(3'-(5-(((1-hydroxypropan-2-yl)amino)methyl)-4-methoxypicolinamido)-2,2'-dimethyl-[1,1'-biphenyl]-3-yl)-4-methoxypicolinamide] | < 20 | 205
3 | COc1cc(C(=O)Nc2cccc(-c3cccc(NC(=O)c4ccc(CN(C)CCO)cn4)c3C)c2C)ncc1CN(C)CCO [Compound R1_C450, 5-(((2-hydroxyethyl)(methyl)amino)methyl)-N-(3'-(5-(((2-hydroxyethyl)(methyl)amino)methyl)picolinamido)-2,2'-dimethyl-[1,1'-biphenyl]-3-yl)-4-methoxypicolinamide] | < 20 | 206
4 | COc1cc(C(=O)Nc2cccc(-c3cccc(NC(=O)c4cc(OC)c(CN[C@@H](C)CO)cn4)c3C)c2C)ncc1CNCCCO [Compound R1_C453, (S)-5-(((1-hydroxypropan-2-yl)amino)methyl)-N-(3'-(5-(((3-hydroxypropyl)amino)methyl)-4-methoxypicolinamido)-2,2'-dimethyl-[1,1'-biphenyl]-3-yl)-4-methoxypicolinamide] | < 20 | 143
5 | COc1cc(C(=O)Nc2cccc(-c3cccc(NC(=O)c4ccc(CN(C)CCO)cn4)c3C)c2C)ncc1CN[C@@H](C)CO [Compound R1_C458, (S)-N-(3'-(5-(((2-hydroxyethyl)(methyl)amino)methyl)picolinamido)-2,2'-dimethyl-[1,1'-biphenyl]-3-yl)-5-(((1-hydroxypropan-2-yl)amino)methyl)-4-methoxypicolinamide] | < 20 | 159

The next lines start with the values.

Row | IC50 [1] [nM] | EC50 (PD-1/PD-L1 interaction) [nM] | SMILES
6 | < 20 | 176 | COc1cc(C(=O)Nc2cccc(-c3cccc(NC(=O)c4cc(OC)c(CN(C)CCO)cn4)c3C)c2C)ncc1CN[C@@H](C)CO [Compound R1_C441, (S)-5-(((2-hydroxyethyl)(methyl)amino)methyl)-N-(3'-(5-(((1-hydroxypropan-2-yl)amino)methyl)-4-methoxypicolinamido)-2,2'-dimethyl-[1,1'-biphenyl]-3-yl)-4-methoxypicolinamide]
7 | < 20 | 150 | COc1cc(C(=O)Nc2cccc(-c3cccc(NC(=O)c4cc(OC)c(CN[C@@H]5CCC[C@H]5O)cn4)c3C)c2C)ncc1CNC(CO)CO [Compound R1_C445, 5-(((1,3-dihydroxypropan-2-yl)amino)methyl)-N-(3'-(5-((((1R,2R)-2-hydroxycyclopentyl)amino)methyl)-4-methoxypicolinamido)-2,2'-dimethyl-[1,1'-biphenyl]-3-yl)-4-methoxypicolinamide]
8 | < 20 | 68 | COc1cc(C(=O)Nc2cccc(-c3cccc(NC(=O)c4ccc(CN(C)CCO)cn4)c3C)c2C)ncc1CN[C@@H]1CCC[C@H]1O [Compound R1_C451, 5-((((1R,2R)-2-hydroxycyclopentyl)amino)methyl)-N-(3'-(5-(((2-hydroxyethyl)(methyl)amino)methyl)picolinamido)-2,2'-dimethyl-[1,1'-biphenyl]-3-yl)-4-methoxypicolinamide]
9 | – | 234 | COc1cc(C(=O)Nc2cccc(-c3cccc(NC(=O)c4ccc(CN(C)CCO)cn4)c3C)c2C)ncc1CN[C@@H]1CCC[C@H]1O [Compound R1_C451_1, 5-((((1R,2R)-2-hydroxycyclopentyl)amino)methyl)-N-(3'-(5-(((2-hydroxyethyl)(methyl)amino)methyl)picolinamido)-2,2'-dimethyl-[1,1'-biphenyl]-3-yl)-4-methoxypicolinamide trihydrochloride]
10 | 50 to 1000 | 480 | COc1cc(C(=O)Nc2cccc(-c3cccc(NC(=O)c4cc(OC)c(CNCCCO)cn4)c3C)c2C)ncc1CNCCO [Compound R1_C454, 5-(((2-hydroxyethyl)amino)methyl)-N-(3'-(5-(((3-hydroxypropyl)amino)methyl)-4-methoxypicolinamido)-2,2'-dimethyl-[1,1'-biphenyl]-3-yl)-4-methoxypicolinamide]
